# Test results as given in patent US20220128557A1, “[…] METHODS FOR REAL-TIME CELL MONITORING” (PHENOFAST LTD., priority 2019, published 2022).
# System: E. coli
# Assay: Classical method of serial antibiotic dilution for MIC
# Format: cell-based
# Conditions: FIG. 7E
# Experimental: FIGS. 7A-7E: (7A-7D) Scatter plots, with best fit lines of optical output measured by intensity shift as a function of time, performed on a series of 6 semi-stable sucrose coated grating units in parallel inoculated with E. coli cells and treated an hour later with (7A) 0 μg, (7B) 2.5 μg, (7C) 5.0 μg, and (7D) 7.5 μg of G418. (7E) A photograph of the classical serial dilution method for determining the MIC of G418 for treating E. coli.
# By monitoring the diffraction over time, a range for minimum inhibitory concentration (MIC) was established (FIG. 7A-D). A control well received no antibiotic and normal logarithmic growth was observed (FIG. 7A). […] This would place the MIC at between 2.5 and 5.0 which was the same as the range (2.3-4.7 μg) found by the classical method of serial antibiotic dilution (FIG. 7E).
smiles,measurement,value
CN[C@@H]1[C@@H](O)[C@@H](O[C@@H]2[C@@H](O)[C@H](O[C@H]3O[C@H]([C@@H](C)O)[C@@H](O)[C@H](O)[C@H]3N)[C@@H](N)C[C@H]2N)OC[C@]1(C)O [G418],MIC range found by classical serial antibiotic dilution,2.3 to 4.7 µg
